Assay results as given in ChEMBL document CHEMBL1125168, “Antihypertensive activity of redox derivatives of tryptophan” (J Med Chem, 1990).

Test: Second-order rate of Ferricyanide -mediated oxidation using spectrophotometric method
Assay type: ADME

SMILES | Ko [M⁻¹ s⁻¹]
C[n+]1cccc(C(=O)NC(Cc2c[nH]c3ccccc23)C(=O)OC2CCCCC2)c1 (centres undefined) | 12.2
CCCCCCCCOC(=O)C(Cc1c[nH]c2ccccc12)NC(=O)c1ccc[n+](C)c1 (centres undefined) | 7.61
CCOC(=O)C(Cc1c[nH]c2ccccc12)NC(=O)c1ccc[n+](C)c1 (centres undefined) | 13.5
COC(=O)C(Cc1c[nH]c2ccccc12)NC(=O)c1ccc[n+](C)c1 (centres undefined) | 13.8
